Experiment [1] addresses Proto-oncogene tyrosine-protein kinase Src (Homo sapiens, UniProt P12931). The experiment in a line: Inhibition of human SRC.
The subject of another experiment is Cryptosporidium parvum. The experiment in a line: Antiparasitic activity against Cryptosporidium parvum up to 1 uM. In kind it is functional, organism-based.
In experiment [2] the target is Tyrosine-protein kinase ABL1 (Homo sapiens, UniProt P00519). The experiment in a line: Inhibition of human ABL.
In another experiment the test system is HL-60. Briefly: cells. The settings on record: Homo sapiens.
For the next experiment, the system named is Toxoplasma gondii. Briefly: Antiparasitic activity against Toxoplasma gondii up to 1 uM. The experiment is classed as functional, organism-based.
A short description of another experiment: cells. The settings on record: Homo sapiens, CRL8155.
The target of experiment [3] is T1, Calmodulin-domain protein kinase 1 (Toxoplasma gondii, UniProt Q9BJF5).
T1 sequence (Q9BJF5 whole entry): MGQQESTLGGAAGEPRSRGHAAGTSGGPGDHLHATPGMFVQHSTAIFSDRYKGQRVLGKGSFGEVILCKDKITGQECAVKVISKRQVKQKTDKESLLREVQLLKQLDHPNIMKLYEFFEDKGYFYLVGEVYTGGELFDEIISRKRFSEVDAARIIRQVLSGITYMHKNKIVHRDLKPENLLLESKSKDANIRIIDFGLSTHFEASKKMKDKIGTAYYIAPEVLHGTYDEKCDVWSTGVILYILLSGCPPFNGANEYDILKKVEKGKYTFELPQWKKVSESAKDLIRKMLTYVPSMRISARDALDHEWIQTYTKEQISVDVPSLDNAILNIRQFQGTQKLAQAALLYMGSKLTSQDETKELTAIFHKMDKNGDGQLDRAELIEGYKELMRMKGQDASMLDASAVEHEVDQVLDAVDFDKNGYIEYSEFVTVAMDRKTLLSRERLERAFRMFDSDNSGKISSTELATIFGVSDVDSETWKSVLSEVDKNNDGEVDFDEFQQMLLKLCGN
The experiment in a line: Inhibition of Toxoplasma gondii CDPK1.

The nature of experiment [4]: Inhibition of Cryptosporidium parvum CDPK1.

Active and inactive are the calls of the source. No cut-off for these calls is given here. Some results are limits rather than exact numbers.

Sequence of Proto-oncogene tyrosine-protein kinase Src (P12931 2-536 limits assumed): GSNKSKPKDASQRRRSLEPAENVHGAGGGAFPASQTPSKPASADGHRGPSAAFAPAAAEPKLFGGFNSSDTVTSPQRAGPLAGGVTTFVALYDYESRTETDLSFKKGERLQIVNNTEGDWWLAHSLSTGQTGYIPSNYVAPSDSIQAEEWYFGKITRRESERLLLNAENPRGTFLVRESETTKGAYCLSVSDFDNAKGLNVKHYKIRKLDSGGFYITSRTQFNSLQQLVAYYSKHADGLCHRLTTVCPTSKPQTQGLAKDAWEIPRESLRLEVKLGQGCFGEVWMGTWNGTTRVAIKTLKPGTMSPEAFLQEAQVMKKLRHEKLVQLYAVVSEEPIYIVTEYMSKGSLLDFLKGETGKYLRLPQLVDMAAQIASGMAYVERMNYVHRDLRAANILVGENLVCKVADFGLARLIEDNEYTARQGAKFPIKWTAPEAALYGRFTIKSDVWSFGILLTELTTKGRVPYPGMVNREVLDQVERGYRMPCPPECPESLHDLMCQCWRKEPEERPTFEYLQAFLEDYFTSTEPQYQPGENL
Sequence of Tyrosine-protein kinase ABL1 (P00519 whole entry): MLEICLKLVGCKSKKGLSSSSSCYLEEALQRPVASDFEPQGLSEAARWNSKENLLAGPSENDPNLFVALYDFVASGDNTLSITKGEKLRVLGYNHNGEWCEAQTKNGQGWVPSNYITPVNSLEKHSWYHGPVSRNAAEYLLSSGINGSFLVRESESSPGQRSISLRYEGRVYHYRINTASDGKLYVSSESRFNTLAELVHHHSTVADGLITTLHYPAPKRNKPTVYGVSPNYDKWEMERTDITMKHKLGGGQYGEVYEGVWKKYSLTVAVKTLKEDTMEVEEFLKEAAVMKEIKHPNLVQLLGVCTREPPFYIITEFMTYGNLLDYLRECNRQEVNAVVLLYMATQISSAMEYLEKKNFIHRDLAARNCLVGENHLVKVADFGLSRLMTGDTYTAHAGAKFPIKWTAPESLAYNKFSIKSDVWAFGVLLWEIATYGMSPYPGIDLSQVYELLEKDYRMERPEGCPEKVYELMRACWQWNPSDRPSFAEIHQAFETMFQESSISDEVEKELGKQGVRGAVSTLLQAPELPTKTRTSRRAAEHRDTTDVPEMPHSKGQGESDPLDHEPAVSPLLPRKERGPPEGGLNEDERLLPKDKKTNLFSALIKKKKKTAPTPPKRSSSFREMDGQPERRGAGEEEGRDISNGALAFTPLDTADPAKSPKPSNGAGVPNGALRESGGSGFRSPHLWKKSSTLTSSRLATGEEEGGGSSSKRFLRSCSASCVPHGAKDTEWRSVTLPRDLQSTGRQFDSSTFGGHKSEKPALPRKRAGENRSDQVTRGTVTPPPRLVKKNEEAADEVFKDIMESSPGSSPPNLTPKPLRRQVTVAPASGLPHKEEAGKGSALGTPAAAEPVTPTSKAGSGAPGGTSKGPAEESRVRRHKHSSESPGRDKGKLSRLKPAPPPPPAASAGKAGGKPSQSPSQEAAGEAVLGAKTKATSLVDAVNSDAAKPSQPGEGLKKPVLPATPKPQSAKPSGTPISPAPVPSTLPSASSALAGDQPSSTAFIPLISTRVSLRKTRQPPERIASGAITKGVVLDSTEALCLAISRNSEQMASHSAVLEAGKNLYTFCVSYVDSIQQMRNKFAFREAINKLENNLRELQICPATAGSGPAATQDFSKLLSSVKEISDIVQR
Description for HL-60: Cytotoxicity against human HL60 cells after 48 to 72 hrs by Alamar blue assay

In general, IC50 refers to the concentration that inhibits the measured activity by half. Usually EC50 stands for the concentration needed to bring the measured effect to its halfway point. Low values mean higher potency in that assay, high ones lower potency in that assay. For `Nc1nc2ccc(C(=O)c3ccccc3)cc2n1CC1CCNCC1`, the IC50 in experiment [1] and in experiment [2] was > 10000 nM each time. Further, the result in the experiment on Cryptosporidium parvum and with Toxoplasma gondii was inactive. In addition, the concentration giving a half-maximal response (EC50) with HL-60 and in the experiment “cells” was > 30000 nM throughout.

For `O=C(NCCC1CCNCC1)Nc1nc2ccc(C(=O)c3ccccc3)cc2[nH]1`, the outcome with Cryptosporidium parvum and with Toxoplasma gondii was inactive. The half-maximal inhibitory concentration (IC50) in experiment [3] was 130 nM; in experiment [2], 100 nM; in experiment [4], 180 nM. The EC50 with HL-60 and in “cells” was > 30000 nM in each case.

Consider `NCCC(=O)Nc1nc2ccc(C(=O)c3ccccc3)cc2n1CC1CCNCC1`, for which the half-inhibitory concentration (IC50) was > 10000 nM in experiment [1], 570 nM in experiment [3] and 860 nM in experiment [4]. Besides, the outcome in the experiment with Cryptosporidium parvum and with Toxoplasma gondii was inactive. The EC50 in the experiment with HL-60 and in the experiment “cells” was > 30000 nM each time.

In the case of `NCCC(=O)Nc1nc2ccc(C(=O)c3ccccc3)cc2[nH]1`, the outcome with Cryptosporidium parvum and in the experiment on Toxoplasma gondii was inactive. Further, the values for the half-inhibitory concentration (IC50) in experiment [3] and in experiment [4] were 180 nM and 130 nM, respectively. For the same compound, the EC50 with HL-60 and in “cells” was > 30000 nM throughout.

Consider `CN1CCN(CCn2c(N)nc3ccc(C(=O)c4ccccc4)cc32)CC1`, for which the half-inhibitory concentration (IC50) in experiment [1] was > 10000 nM; in experiment [3], 43 nM; in experiment [2], > 10000 nM; in experiment [4] it was 36 nM. Further, the result in the experiment on Cryptosporidium parvum and in the experiment with Toxoplasma gondii was inactive. The EC50 in the experiment with HL-60 and in “cells” was > 30000 nM throughout.

On to `Nc1nc2ccc(C(=O)c3ccccc3)cc2n1CCC1CCNCC1`, for which the 50% inhibitory concentration (IC50) in experiment [1] is > 10000 nM; in experiment [3], 20 nM; in experiment [2] it was > 10000 nM; in experiment [4], 17 nM. Moreover, the outcome with Cryptosporidium parvum and with Toxoplasma gondii was inactive. Besides, the concentration giving a half-maximal response (EC50) in the experiment on HL-60 and in “cells” was > 30000 nM throughout.

Turning to `COC(=O)Nc1nc2ccc(C(=O)c3ccccc3)cc2[nH]1` [MEBENDAZOLE], the IC50 in experiment [1] is > 10000 nM; in experiment [3] it was 670 nM; in experiment [2], 5000 nM.

For the compound `O=C(CCC1CCNCC1)Nc1nc2ccc(C(=O)c3ccccc3)cc2[nH]1`, the outcome in the experiment on Cryptosporidium parvum and in the experiment with Toxoplasma gondii was inactive. Further, the 50% inhibitory concentration (IC50) came to 41 nM in experiment [3] and 110 nM in experiment [4]. For the same compound, the EC50 in the experiment with HL-60 and in the experiment “cells” was > 30000 nM in each case.

Take `CN1CCC(Cn2c(N)nc3ccc(C(=O)c4ccccc4)cc32)CC1`: the outcome with Cryptosporidium parvum and in the experiment with Toxoplasma gondii was inactive. In addition, the figures for the IC50 in experiment [3] and in experiment [4] were 150 nM and 260 nM, respectively. The concentration giving a half-maximal response (EC50) in the experiment with HL-60 and in the experiment “cells” was > 30000 nM each time.

Take `Nc1nc2ccc(C(=O)c3ccccc3)cc2n1CC[C@@H]1CCCN1`: the half-maximal inhibitory concentration (IC50) is > 10000 nM in experiment [1], 29 nM in experiment [3], > 10000 nM in experiment [2] and 30 nM in experiment [4]. Further, the outcome with Cryptosporidium parvum and with Toxoplasma gondii was inactive. For the same compound, the concentration for a half-maximal effect (EC50) in the experiment on HL-60 and in “cells” was > 30000 nM each time.

As for `Nc1nc2ccc(C(=O)c3ccccc3)cc2[nH]1`, the IC50 in experiment [1] is > 10000 nM; in experiment [3] it was 230 nM; in experiment [4], 600 nM. The outcome in the experiment with Cryptosporidium parvum and with Toxoplasma gondii was inactive. In addition, the EC50 in the experiment on HL-60 and in “cells” was > 30000 nM throughout.

Regarding `N[C@@H](Cc1ccc(O)cc1)C(=O)Nc1nc2ccc(C(=O)c3ccccc3)cc2[nH]1`, the outcome in the experiment with Cryptosporidium parvum and with Toxoplasma gondii was inactive. Further, the IC50 in experiment [3] was 520 nM; in experiment [4], 1410 nM. Further, the EC50 with HL-60 and in the experiment “cells” was > 30000 nM throughout.

On to `Nc1nc2ccc(C(=O)c3ccccc3)cc2n1CC[C@H]1CCCN1`, for which the result with Cryptosporidium parvum and with Toxoplasma gondii was inactive. Further, the half-inhibitory concentration (IC50) in experiment [3] is 65 nM; in experiment [4] it was 95 nM. Moreover, the half-maximal effective concentration (EC50) with HL-60 and in the experiment “cells” was > 30000 nM in each case.

For `CN1CCC(CCn2c(N)nc3ccc(C(=O)c4ccccc4)cc32)CC1`, the concentration for half-maximal inhibition (IC50) in experiment [1] is > 10000 nM; in experiment [3], 30 nM; in experiment [2], > 10000 nM; in experiment [4], 26 nM. Further, the result with Cryptosporidium parvum and in the experiment with Toxoplasma gondii was inactive. Besides, the EC50 in the experiment with HL-60 and in “cells” was > 30000 nM in each case.

`Nc1nc2ccc(C(=O)c3ccccc3)cc2n1CCc1ccccn1`: the outcome with Cryptosporidium parvum and in the experiment on Toxoplasma gondii was inactive. For the same compound, the concentration for half-maximal inhibition (IC50) in experiment [3] amounted to 260 nM; in experiment [4], 830 nM. The concentration for a half-maximal effect (EC50) in the experiment with HL-60 and in “cells” was > 30000 nM each time.

As to `O=C(c1ccccc1)c1ccc2nc(NCCC3CCCNC3)[nH]c2c1` (centres undefined), the outcome in the experiment on Cryptosporidium parvum and with Toxoplasma gondii was inactive. Further, the half-inhibitory concentration (IC50) in experiment [3] and in experiment [4] was > 3000 nM in each case. In addition, the EC50 with HL-60 and in the experiment “cells” was > 30000 nM each time.

(Values after ChEMBL document CHEMBL2057208, “Benzoylbenzimidazole-based selective inhibitors targeting Cryptosporidium parvum and Toxoplasma gondii calcium-dependent protein kinase-1” (Bioorg Med Chem Lett, 2012).)
